Measurements published in a melting point compilation (Tetko et al.; mined from patent text by program, amines drawn as free bases though some values may be those of a salt).

Structure (SMILES) | melting point [°C]
CC(=O)NCc1cccc(Nc2nccc(-c3sc(C)nc3C)n2)c1 | 206 to 207
COc1cc(-c2ccc(C3C(CCC(O)c4ccc(F)cc4)C(=O)N3c3ccc(F)cc3)cc2)cc(OC)c1OC (stereo not drawn) | 103
CCc1oc(-c2ccc(S(C)(=O)=O)cc2)c(Oc2ccc(F)cc2F)c(=O)c1C | 200
CN1CCN(c2nc3sc4c(NCc5ccccn5)ncnc4c3c3c2CCC(C)(C)C3)CC1 | 200 to 202
Cc1cc(C(O)=S)cc(N)c1Cc1ccccc1 | 153 to 154
CS(=O)(=O)c1ccc(-c2oc(COc3ccccn3)nc2-c2ccc(F)cc2)cc1 | 276 to 278
COc1c2oc(C)cc2cc2c(C)cc(=O)oc12 | 154 to 155
COC(=O)c1cccc2c1OC1CC(N=[N+]=[N-])C(O)C21 (stereo not drawn) | 150 to 152
Clc1ccc(C2=NNC(c3cccnc3)S2)cc1 (stereo not drawn) | 106 to 108
CN(C)c1ccc2[nH]c3c([N+](=O)[O-])ccc(Cl)c3c(=O)c2c1 | > 300
NC(=O)c1ccc(N2CCN(Cc3cn4cc(Br)ccc4n3)CC2)cc1 | 238 to 239
COc1cc(-c2nc(-c3ccc(N(C)C)cc3)c(-c3ccc(N(C)C)cc3)[nH]2)cc(OC)c1O | 258 to 260
COc1ccc(N2CCN(C)CC2)cc1-c1cnn2c(N)c(-c3cccc(Cl)c3)c(C)nc12 | 116 to 121
CC(=O)NC[C@H]1CN(c2ccc(N3CCC(n4cc(C(F)F)nn4)CC3)c(F)c2)C(=O)O1 | 186 to 188
O=C1Cc2cc(NC(=O)C(=O)N3CCC(CCc4ccccc4)CC3)ccc2N1 | 236 to 240
CCNS(=O)(=O)c1ccc(-c2cnc3[nH]c(CCc4cc(OC)ccn4)nc3c2)cc1 | 214 to 216
Cc1c(NC(=O)c2ccc(OC[C@@H]3CCCO3)cc2)ccc2c1cc(CNCC(C)(C)O)n2C | 160 to 162
CCCCc1ccc(C(=O)NC(C)(C(N)=O)C(C)C)nc1 (stereo not drawn) | 83 to 86
CCOC(=O)C(Cc1cccc2ccccc12)C(=O)OCC | 30
COc1cccc(N(CCN2CCC(C(=O)c3ccc(F)cc3)CC2)C(=O)c2cccc([N+](=O)[O-])c2)c1 | 123 to 125
CC(C)NC(=O)N1CCc2[nH]cnc2C1c1cccnc1 (stereo not drawn) | 237
OCc1ccc(-c2cc3c(NCc4cccc(Cl)c4)ncnc3[nH]2)cc1 | 296 to 298

Structure (SMILES) | melting point [°C]
C[C@@H](O[C@H]1CCCN(Cc2n[nH]c(=O)[nH]2)[C@H]1c1ccccc1)c1cccc(Cl)c1 | 164 to 165
CC(=O)OC1CSC(Oc2ccc(I)nc2Cl)C(OC(C)=O)C1OC(C)=O (stereo not drawn) | 188
c1ccc(-c2ccc(-c3cn([C@H]4CN5CCC4CC5)nn3)s2)cc1 | 184
CCn1nc(C)c2c1C(=O)Nc1ccccc1N2C(=O)CN1CCN(C)CC1 | 145 to 146
COc1cc2c(cc1OC)SCCC(C(=O)N1CCN(C(=O)c3cc(OC)c(OC)c(OC)c3)CC1)=C2 | 113
CN(C)c1ccc(C(=O)NC2CCN(C(c3ccccc3)c3ccccc3)CC2)c(N)c1 | 118
O=C(c1ccc(C(F)(F)F)cc1)N1CCC(Cc2ccc(C3=NCCO3)cc2)CC1 | 115
CC(C)c1ccc(-n2nc(C(F)(F)F)cc2-c2ccc(S(C)(=O)=O)cc2)cc1 | 144 to 146
CN1CCN(Cc2ccc3nc(-c4ccc(Cl)c(C#Cc5cnc6cccnn56)c4)[nH]c3c2)CC1 | 156 to 157
CCOc1cc2ncc3c(N)nc(-c4cccnc4)cc3c2cc1OCC | 241 to 245
O=C(O)C(O)c1ccccc1Nc1c(Cl)cccc1Cl (stereo not drawn) | 140 to 142
CN(O)C(=O)Nc1c(C(=O)c2ccccc2)[nH]c2cc(Cl)ccc12 | 208 to 214
CC1=C(C(=O)Nc2cc(C(=O)OC(C)C)c(C)cc2F)SCCO1 | 119 to 122
CCCCCCCCCCC1(CCCCCCCCCC)c2cc(-c3cccs3)ccc2-c2ccc(-c3cccs3)cc21 | 59.9 to 60.8
O=C1NC(=O)C(Cc2ccc(OCc3nc4cccnc4n3Cc3ccc(-c4ccccc4)cc3)cc2)S1 (stereo not drawn) | 189 to 191
CN(CCN)C(=O)N1N=C2c3cc(F)ccc3OC[C@@H]2[C@@H]1c1ccccc1 (racemic) | 113
C=Cn1cc(C(=O)O)c(=O)c2cc(F)c(N3CCC(NC)C3)nc21 (stereo not drawn) | 160 to 161
CCn1c(=S)c2[nH]c(C(C)C)nc2n(CC)c1=O | 168 to 170
Cc1sc(-c2ccc(C#N)cc2)nc1O | 220 to 221
NCc1ccn(-c2cc3[nH]c(=O)c(=O)[nH]c3cc2[N+](=O)[O-])c1 | > 300
COc1cc2ncnc(N3CCN(C(=O)NCc4cccs4)CC3)c2cc1OC | 168 to 170
O=C(O)c1cccc(-c2ccc(F)c3cc(Cc4cccc(C(F)(F)F)c4)oc23)c1 | 172 to 173

Structure (SMILES) | melting point [°C]
CCOC(=O)CCCCCCCCCCNC(=O)c1cc(O)ccc1O | 72 to 74
O=c1c2cc(F)c(N3CCCC3)cc2n(CCF)c(=O)n1O | 228 to 230
CC(Oc1cccc(OCc2ccc3ccc(Br)cc3n2)c1)C(=O)O (stereo not drawn) | 178
NC[C@@H](O)[C@H](Cc1ccccc1)N(Cc1ccccc1)Cc1ccccc1 | 72 to 76
CCON1CCC(C#N)(NC(=O)Cc2c(C)cc(C)cc2C)CC1 | 194 to 195
CCCOc1ccc(F)cc1OCCN1C(=O)c2ccccc2C1=O | 102 to 103
O=Cc1cccc(OCCn2ncc3ccccc3c2=O)c1 | 110 to 111
COc1ccc(-c2cc3nc(N(C)C)c4ccccc4c3nn2)cc1 | 160 to 162
CCc1cn(C2CC(O)C(CNC(=O)CS(=O)(=O)c3ccccc3)O2)c(=O)[nH]c1=O (stereo not drawn) | 218 to 219
C#CC1(O)CCC2C3C(C)CC4=CC(=O)CCC4C3CCC21CC (stereo not drawn) | 182 to 184
CNS(=O)(=O)Cc1ccc(NC(=O)C(F)(F)F)c(Br)c1 | 170
CC(C)[C@H](NC(=O)N(C)Cc1cccnc1)C(=O)N[C@@H](Cc1ccccc1)[C@H](O)[C@@H](O)[C@H](Cc1ccccc1)NC(=O)[C@@H](NC(=O)N(C)Cc1cccnc1)C(C)C | 95 to 97
CCOC(=O)NC=C(C(=O)OCC)c1ccc(Cl)cc1 | 72
CN(C)C(=O)CC1(O)C(=O)Nc2ccc(I)cc21 (stereo not drawn) | 246
C[C@H]1CCCC(C)(C)[C@@H]1[C@H](O)c1ccc2c(c1)CCN(C(N)=O)C2 | 99.1 to 101
CCOC(=O)CNc1ncccc1NC(=O)c1ccc(Cl)cc1 | 133 to 134
O=c1c2c[nH]c3ccccc3c-2nn1-c1ccccc1 | 326 to 328
CC(=O)NCCC(C)c1ccc(-c2ccc(Cl)cc2)cc1 (stereo not drawn) | 118 to 120
COC(=O)c1ccc(C(=O)N(C)c2ccccc2)cc1 | 78 to 80
O=C(NCc1ccccc1)c1ccc(OC2SCC(O)C(O)C2O)cn1 (stereo not drawn) | 89 to 91
COC(=O)COc1ccc(C(=O)C(C)N2CCN(c3ccncc3)CC2)cc1 (racemic) | 81 to 83
Cn1cc(C2(c3c4n(c5ccccc35)CCCCC4)CC(=O)OC2=O)c2ccccc21 (stereo not drawn) | 257 to 259

The remaining lines, values ahead:

melting point [°C] | Structure (SMILES)
112 | CC1(C2CCCC2)Cc2cc(OCCCC#N)c(Cl)c(Cl)c2C1=O (stereo not drawn)
113 to 115 | C#CCNc1cc(F)c([N+](=O)[O-])cc1[N+](=O)[O-]
148 | CCOC(=O)NC(=O)N(O)Cc1c(C)n(C(=O)c2ccc(Cl)cc2)c2ccc(OC)cc12
77 to 78 | O=C(Cl)c1c(Cl)c(Cl)c(Cl)c(Cl)c1CCl
169 to 174 | O=CNc1ccccc1CNC1CCC(=O)NC1=O (stereo not drawn)
136 | C=C(C)C(=O)N=c1ccn(-c2ccccc2)nc1
51 to 53 | C[C@@H]1O[C@@]1(Cn1cncn1)c1ccc(Cl)cc1
153 to 154 | COC(=O)c1ccc(CCC(CS(=O)(=O)c2ccc(Oc3ccc(OC(F)(F)F)cc3)cc2)N(O)C=O)cc1 (stereo not drawn)
77 to 80 | CC(N)(C(N)=O)C(F)F (stereo not drawn)
213 to 216 | CC(C)n1nc(-c2c(OCCN)nc(N)nc2-c2ccccc2)ccc1=O
161 to 162 | Cc1[nH]cnc1CSCCNc1[nH]ccc1[N+](=O)[O-]
64 to 65 | CC(=O)Oc1ccc(C[C@H]2CCc3ccccc3O2)cc1
165 to 166 | CCCN(C(=O)OCC(Cl)(Cl)Cl)C1CN(C(=O)Nc2ccc(C(F)(F)F)cc2)N=C1c1ccc(OC(F)F)c(C)c1 (stereo not drawn)
85 to 87 | CCN1c2cscc2CNc2ccccc21
203 to 206 | O=c1c(-c2ccccc2Cl)cc2cnc(NC3C4CN(Cc5ccccc5)CC43)nc2n1C1CCNC1 (stereo not drawn)
232 to 235 | O=C(Nc1c(F)cccc1F)c1c(O)ccn2c1nc1ccccc12

melting point [°C] | Structure (SMILES)
158 to 160 | NC(=O)N(O)CCNC(=O)c1cccn1Cc1ccc(Cl)cc1
27 to 31 | CC(=C1SCCS1)c1ccc(F)cc1
214 to 216 | Nc1nc2ccccc2c2c1nc(-c1ccccc1)n2CCCCNS(=O)(=O)c1ccc(F)cc1
183 | CCOC(=O)C(F)(F)c1ccc(NC(=O)c2ccc3c(c2)C(C)(C)CCC3(C)C)cc1
51 to 52 | C=C(c1ccccc1)c1ccc(N(C)C)cc1
> 320 | O=C(O)Cn1c(=O)c(=O)[nH]c2cc([N+](=O)[O-])ccc21
66 | N#CCOc1cccc2c1SCCC2
> 300 | Oc1nc2ccccc2n2c(C(F)(F)F)nnc12
156 | C1=C(c2cccc3[nH]ccc23)CNCC1
160 to 165 | c1cnc2nc(-c3nccs3)ccc2c1
94 to 95 | Cc1c(NC(=O)CC(C)(C)C)cc2c(c1C)O[C@@H](C)[C@H]2c1ccc(C(C)C)cc1 (relative stereo)
235 to 237 | O=C(Nc1ccc(-n2nc(C(F)(F)F)cc2C(F)(F)F)cc1)c1c(F)c(F)cc(F)c1F
92 to 94 | ClCCOc1ccc(/C=C/c2nc3ccccc3s2)cc1
118 to 119 | C[Si](C)(C)CCCCCNC(=O)n1cc(F)c(=O)[nH]c1=O
112 to 113 | Cc1ccc(C)n1-c1ccc(CC#N)cc1
128 to 129 | OC(CCc1ccccc1)C(O)CCc1ccccc1 (stereo not drawn)
